Measurements published in patent US5973112A, “Collagen mimics” (Wisconsin Alumni Research Foundation, priority 1997, dated 1999).

Experiments:
[1] = trans:cis ratio of the proline peptide bond in N-acetyl proline methylester derivatives; format: physicochemical; conditions: for ΔΔG: relative to AcProOMe
Experimental: To begin to test this hypothesis, it was determined how electron-withdrawing groups affect the trans:cis ratio. N-Acetyl proline methylester (AcProOMe), N-acetyl-4(R)-hydroxyproline methylester (AcHypOMe), and N-acetyl-4(R)-fluoroproline (AcFlpOMe) were synthesized and their preferences for the trans state were determined, Eberhardt et al., J. Am. Chem. Soc., 118:12261-12266 (1996).

[2] = crystalline structure, Cγ-Cδ bond length; format: physicochemical
Excerpt: The origin of this effect on trans:cis ratio was explored by determining the crystalline structures of AcProOMe, AcHypOMe, and AcFlpOMe, Panasik et al., Int. J. Pept. Protein Res., 44:262-269. […] This order is consistent with an inductive effect in which the substituent in the 4-position withdraws electron density away from the Cγ-Cδ bond. A shorter Cγ-Cδ bond length diminishes steric clashes between atoms in the trans isomer, but has no effect on the cis isomer. The inductive effect from the hydroxyl group of Hyp residues is consistent with the effect of Hyp on collagen stability. Other manifestations of the inductive effects of Hyp and Flp residues were also found by Panasik et al. and by Eberhardt et al. Similar inductive effects should be manifested in 4(S)-fluoroproline and in 4,4-difluoroproline.

COC(=O)[C@@H]1CCCN1C(C)=O [AcProOMe, N-Acetyl proline methylester]
trans:cis ratio [1]: 4.3
ΔΔG [1]: 0 kcal/mol
Cy-Cδ bond length [2]: 1.523 Å

COC(=O)[C@@H]1C[C@@H](O)CN1C(C)=O [AcHypOMe, N-acetyl-4(R)-hydroxyproline methylester]
trans:cis ratio [1]: 5.8
ΔΔG [1]: 0.18 kcal/mol
Cy-Cδ bond length [2]: 1.510 Å
